Activity calls are given as the source filed them.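 Rule for the calls: active = decreasing luminescence curve with half-maximal concentration at most twice the top tested dose, in every replicate run; inconclusive = replicate test runs disagree in their calls; inactive = every replicate run inactive, including responses in the opposite direction.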

For the first experiment, the target named is Glycogen synthase kinase-3 beta (Homo sapiens) (UniProt P49841). The experiment in a line: GSK3beta inhibitors at high ATP, SAR follow-up, mechanism study for GSK3beta inhibitor project, biochemical, varied ATP levels, ADP-Glo luminescence, dry powder samples (AID 624027). To be noted: GST-GSK3beta kinase, 100 uM ATP. A general note: ADP-Glo first removes unused ATP, then detects ADP through luciferase.
Glycogen synthase kinase-3 beta (Homo sapiens), sequence (P49841 whole entry, looked up): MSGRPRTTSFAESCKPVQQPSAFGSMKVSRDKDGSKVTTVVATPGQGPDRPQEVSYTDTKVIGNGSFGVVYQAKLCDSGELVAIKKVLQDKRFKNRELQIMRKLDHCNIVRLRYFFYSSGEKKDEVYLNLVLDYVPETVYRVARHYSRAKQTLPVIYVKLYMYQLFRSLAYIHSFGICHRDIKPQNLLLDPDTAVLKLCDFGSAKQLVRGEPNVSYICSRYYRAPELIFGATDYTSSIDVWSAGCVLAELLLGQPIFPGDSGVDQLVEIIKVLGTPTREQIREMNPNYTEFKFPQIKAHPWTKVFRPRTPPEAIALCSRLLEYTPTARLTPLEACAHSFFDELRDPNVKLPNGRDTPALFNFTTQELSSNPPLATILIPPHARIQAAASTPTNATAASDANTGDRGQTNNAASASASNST
A word on the AC50: it is the midpoint of the concentration-response curve, whichever way the signal moves. In the case of `Cc1[nH]nc2c1C(c1ccc(C#N)cc1)C1=C(CC(C)(C)CC1=O)N2` (centres undefined), the AC50 was 39800 nM.

As to `CC1(C)CC(=O)C2=C(C1)Nc1n[nH]c(C(F)(F)F)c1C2c1cc(F)ccc1C(F)(F)F` (centres undefined), the AC50 was 209 nM.

Take `Cc1[nH]nc2c1[C@@H](c1ccccc1C(F)(F)F)C1=C(CC(C)(C)CC1=O)N2`: the AC50 was 231 nM.

For `Cc1[nH]nc2c1C(c1cccc3nonc13)C1=C(CC(C)(C)CC1=O)N2` (centres undefined), the AC50 was 231 nM.

As to `CC1(C)CC(=O)C2=C(C1)Nc1n[nH]c(C(F)(F)F)c1C2c1ccccc1F` (centres undefined), the AC50 is 932 nM.

Regarding `Cc1[nH]nc2c1[C@H](c1ccccc1C(F)(F)F)C1=C(CC(C)(C)CC1=O)N2`, the AC50 was 31900 nM.

Consider `CC1(C)CC(=O)C2=C(C1)Nc1n[nH]c(C(F)(F)F)c1C2c1ccccc1` (centres undefined), for which the AC50 was 103 nM.

As for `CC1(C)CC(=O)C2=C(C1)Nc1n[nH]c(C(F)(F)F)c1C2c1cc(F)ccc1OC(F)(F)F` (centres undefined), the AC50 was 2340 nM.

For `CC1(C)CC(=O)C2=C(C1)Nc1n[nH]c(C(F)(F)F)c1C2(C)c1ccccc1` (centres undefined), the AC50 was 41 nM.

With `CC1(C)CC(=O)/C(=C\c2ccccc2C(F)(F)F)C(=Nc2cc(C(F)(F)F)[nH]n2)C1`, the AC50 was 25200 nM.

In the case of `CC1(C)CC(=O)/C(=C\c2cccc(F)c2C(F)(F)F)C(=Nc2cc(C(F)(F)F)[nH]n2)C1`, the AC50 is 13200 nM.

Regarding `COc1ccccc1[C@@H]1C2=C(CC(C)(C)CC2=O)Nc2n[nH]c(C(F)(F)F)c21`, the AC50 was 143 nM.

The same experiment, now with this note: GST-GSK3beta kinase, 100 uM ATP, at 46 µM (top of the series).
Take `CN(C)Cc1cn(-c2ccccc2)nc1-c1ccccc1`: the “activity change, negative = inhibition” value was “inactive”.

`CNC(=O)c1cn(-c2ccccc2)nc1-c1ccc(OC)cc1`: the “activity change, negative = inhibition” value is “inactive”.

(Values after PubChem BioAssay AID624027 (Broad Institute, 2012).)
